From publication PMC5960634 (Biochemical pharmacology, 2018)
Where a name gives a salt, the structure may show the parent alone.

Legend:
[1] = target: T1, recombinant full length human estrogen receptor alpha (ERα) (Homo sapiens, UniProt P03372); assay: [3H]-ketamine saturation radioligand binding assay; conditions: read-out: KD of [3H]-ketamine binding to ERα (saturation binding); nine concentrations of [3H]-ketamine, 4 nM to 400 nM; non-linear regression
[2] = target: T1, recombinant full length human estrogen receptor alpha (ERα); assay: [3H]-ketamine displacement assay; type: binding
[3] = brains of female than in male mice; cited from earlier work
[4] = target: T1, recombinant full length human estrogen receptor alpha (ERα); conditions: 1 nM [3H]-estradiol; competitor 4 nM - 40 mM

T1 sequence (P03372 whole entry): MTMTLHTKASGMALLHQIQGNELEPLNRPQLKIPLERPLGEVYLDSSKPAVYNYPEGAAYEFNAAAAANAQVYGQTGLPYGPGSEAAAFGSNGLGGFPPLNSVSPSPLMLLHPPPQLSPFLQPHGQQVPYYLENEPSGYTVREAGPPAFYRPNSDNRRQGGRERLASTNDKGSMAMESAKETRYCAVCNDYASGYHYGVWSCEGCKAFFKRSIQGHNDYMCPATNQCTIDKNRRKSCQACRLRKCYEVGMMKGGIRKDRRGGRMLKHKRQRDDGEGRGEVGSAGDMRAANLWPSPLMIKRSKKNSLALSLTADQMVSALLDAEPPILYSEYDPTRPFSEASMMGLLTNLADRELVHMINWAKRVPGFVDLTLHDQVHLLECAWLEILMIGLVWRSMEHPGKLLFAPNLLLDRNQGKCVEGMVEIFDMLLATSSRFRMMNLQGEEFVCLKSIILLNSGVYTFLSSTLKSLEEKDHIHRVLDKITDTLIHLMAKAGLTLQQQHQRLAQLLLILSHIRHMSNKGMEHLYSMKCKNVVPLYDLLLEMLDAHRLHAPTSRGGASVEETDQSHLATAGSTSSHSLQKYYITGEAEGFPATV

Compound	IC50 [2]	also measured
CNC1(c2ccccc2Cl)CCCCC1=O (racemic) [[^3H]-ketamine, (±)-Ketamine [N-methyl-^3H] hydrochloride]		Kd [1]: 344 nM
N[C@]1(c2ccccc2Cl)CCC[C@H](O)C1=O [(2S,6S)-HNK]	3530 ± 200 nM	
N[C@@]1(c2ccccc2Cl)CCC[C@@H](O)C1=O [(2S,6S;2R,6R)-HNK, (2S,6S;2R,6R)-hydroxynorketamine]		brain concentrations, female versus male mice [3]: three fold higher
N[C@@]1(c2ccccc2Cl)CCC[C@@H](O)C1=O [(2R,6R)-HNK]	3400 ± 200 nM	
CNC1(c2ccccc2Cl)CCCCC1=O (stereo not drawn) [ketamine, Ketamine hydrochloride]	2310 ± 100 nM	displacement of [3H]-estradiol binding to ERα (in words) [4]: failed to displace
